According to patent US20140038884A1, “ANTIVIRAL PEPTIDES” (priority 2011, published 2014):
Read-outs that look alike come from different tables or passages of the source. Ends that are not written are not given here.

Key:
[1] = Isoelectric point (Ip) of the peptides; format: physicochemical
HIV-1 = conditions: for influence on the expression level of Ag p24: subfragments containing the GGNK sequence
PE/CA PJ15 cells [2] = test: Cytotoxicity test, Neutral Red Uptake (NRU) method; format: cell-based; conditions: 50 microM, +24 and +48 hours from administration
Protocol: FIG. 3 (a, b, c). Cytotoxicity tests according to Neutral Red Uptake (NRU) method, performed on the three peptides: 1932 (SEQ ID NO 1), 2733 (SEQ ID NO 2) and 1413 (SEQ ID NO 3), at the two concentrations of 5 and 50 microM at +24 and +48 hours from administration. Therefore, concentrations near (5 microM) to or markedly higher (50 microM) than those employed for carrying out the ex-vivo and in vitro tests were used. Cells used are a tumour cell line denominated PE/CA PJ15. Positive control (denoted in the legends by ctrl+), used at a sublethal concentration of 10 microM, is a commercial proapoptotic peptide, Catalog #62206 (Anaspec-USA).
Treated cells were subjected to MTT assay at +24 and +48 hours from peptide inoculation. […] After a 3-hour incubation at 38° C., formazan crystals were solubilized with HCl solution in isopropanol (0.04 N, 200 μl) and the stained solution was measured by a microplate reader (Packard Spectracount™, Packard BioScience Company, Meriden U.S.A.) with a 570 nm filter. […] In the MTT citotoxicity test at +24 and +48 hours, averages of the values obtained by photometer reading of the data related to tested peptides were compared. […] From a determination of the amount of Neutral Red retained in the cells exposed thereto (in comparison with the control) the relative toxicity of the chemical substances at issue can be assessed. […]

PE/CA PJ15 cells [3] = test: Cytotoxicity test, MTT method; format: cell-based; conditions: 15 microM, +48 hours from administration
Protocol: FIG. 4 (a, b, c). Cytotoxicity tests according to the MTT method (see protocols) performed on the three peptides: 1932 (SEQ ID NO 1); 2733 (SEQ ID NO 2) and 1413 (SEQ ID NO 3), and at three concentrations of […] at +24 and +48 hours from administration. There were used concentrations near (5 microM) to, or greater (15, 50 microM) than those used in the ex-vivo and in vitro tests, where average concentration of the three peptides is of about 3.65 microM. Cells used are a tumour cell line denominated PE/CA PJ15. Positive control (denoted in the legends by ctrl+), used at a sublethal concentration of 10 microM, is a commercial proapoptotic peptide, Catalog #62206 (Anaspec-USA).
Treated cells were subjected to MTT assay at +24 and +48 hours from peptide inoculation. […] After a 3-hour incubation at 38° C., formazan crystals were solubilized with HCl solution in isopropanol (0.04 N, 200 μl) and the stained solution was measured by a microplate reader (Packard Spectracount™, Packard BioScience Company, Meriden U.S.A.) with a 570 nm filter. […] In the MTT citotoxicity test at +24 and +48 hours, averages of the values obtained by photometer reading of the data related to tested peptides were compared. […]

HIV = test: Peptide stability, duration of effect on HIV replication in in vitro assays; format: cell-based
Protocol: Current drugs in use for the therapy against HIV infections and AIDS, like e.g. the HAART mixture, are administered in daily doses, whereas the action of the peptides of SEQ ID NO 1, 2, and 3 in in vitro assays highlights a duration of the effect on HIV replication of at least four days.
The effect was verified in two in vitro experimental protocols envisaging: • a treatment of the cells with the virus (adsorption phase), washing, inoculation of the peptide in culture and analysis of viral replication over time; • exposure of the cells to the peptide, adsorption of the cells to the virus, washing, and analysis of viral replication over time.

HIV strain BaL = test: In vitro exogenous infection of healthy-donor PBMCs with HIV strain BaL, p24 ELISA; conditions: at 12 days, 10 microg/ml, regardless of protocol, FIG. 2
HIV strain IIIB = test: In vitro exogenous infection of healthy-donor PBMCs with HIV strain IIIB, p24 ELISA
HIV-1 R5 = conditions: ex vivo

| Substance | Ip (isoelectric point) [1] | activities A) HIV-1 activation ex vivo, B) inhibitory activity, C) (HIV-1) | further results |
| --- | --- | --- | --- |
| APPGARPLPGPPPPGPPPPGP (listed as Sus sp.) [Peptide 7] | 9.79 | do not exhibit any of the activities listed at A), B) and C) |  |
| APPGARPPPGPPPPGPPPPGP (listed as Sus sp.) [Peptide 4] | 9.79 | do not exhibit any of the activities listed at A), B) and C) |  |
| APPGARPPPPPPPPADQPQQGP (Sus sp) [Peptide 6] | 5.88 | do not exhibit any of the activities listed at A), B) and C) |  |
| DKPKKKPPPPAGPPPPPPPPPGPPPPGP [peptide 2733] |  |  | toxicity with respect to the control (NRU) (PE/CA PJ15 cells [2]): slightly more toxic with respect to the control |
| GPPPPGKPQ (listed as Homo sapiens) [Peptide 1e] | 8.75 | do not exhibit any of the activities listed at A), B) and C) |  |
| GPPPQGGN (listed as Homo sapiens) [Peptide 1d] | 5.52 | do not exhibit any of the activities listed at A), B) and C) |  |
| GPPPQGGNKPQ (listed as Homo sapiens) [Peptide 1b] | 8.75 | exhibit none of the activities listed in points A), B) and C) | influence on the expression level of Ag p24 (HIV-1): in no way influences the expression level of Ag p24 |
| GPPPQGGNKPQGPPPG (listed as Homo sapiens) [Peptide 1c] | 8.75 | exhibit none of the activities listed in points A), B) and C) | influence on the expression level of Ag p24 (HIV-1): in no way influences the expression level of Ag p24 |
| GPPPQGGNKPQGPPPPG (listed as Homo sapiens) [Peptide 1a] | 8.75 | exhibit none of the activities listed in points A), B) and C) | influence on the expression level of Ag p24 (HIV-1): in no way influences the expression level of Ag p24 |
| GPPPQGGNKPQGPPPPGKPQ [peptide 1932] |  |  | toxicity with respect to the control (NRU) (PE/CA PJ15 cells [2]): slightly more toxic with respect to the control; toxicity with respect to the control (MTT) (PE/CA PJ15 cells [3]): slightly toxic with respect to the control |
| RPPPGPPPPGPPPGP-OH [peptide 1413, RPPPGPPPPGPPPGP] | 9.75 |  | duration of the effect on HIV replication (HIV): at least four; inhibitory activity relative to Con1 (HIV-1; versus Con1 of U.S. Pat. No. 5,981,720, no direct comparison): 130 times; inhibition of viral replication (HIV strain BaL): effective in inhibiting viral replication; inhibition of viral replication (HIV strain IIIB; +8 days of culture, 10 μg/ml): relevant effect of inhibition of viral replication; virus replication over the time considered (p24 antigen) (HIV strain IIIB; peptide 10 microg/ml, FIG. 1): almost equal to zero; persistence of inhibitory effect (HIV strain IIIB; until day 12, FIG. 1): remained unaltered until day 12; p24 values (HIV-1 R5; after 5 days of culture, control cells 76 picograms/ml): 191 picograms/ml; p24 values (HIV-1 R5; day 10, control cells 79 picograms/ml): 67 pg/mL |
| RSPFFDL (listed as Sus sp.) [Peptide 5] | 5.84 | do not exhibit any of the activities listed at A), B) and C) |  |
